Assay results as given in patent US6673902B2, “Cyclin D binding factor, and uses thereof” (St. Jude Children's Research Hospital, priority 1996, dated 2004).

Key:
32P-BS2 Probe = test: EMSA with 32P-BS2 probe on transfection lysates of NIH-3T3 fibroblasts; assay type: binding; conditions: 32P labeled BS2 probe
Description: (§1) Double-stranded oligonucleotides containing potential DMP1 binding sites (BS1 and BS2) and mutated versions (M1-M4) (FIG. 5B) are end-labeled with ^32P using the Klenow fragment of DNA polymerase and α-^32P-dATP (6000 Ci/mmol; Dupont NEN) (8). Nuclear extracts from mouse NIH-3T3 or CTLL cells are prepared with buffer containing 0.4 M NaCl (2). Mammalian cell extracts (15 μg protein) or Sf9 lysates (corresponding to 5×10^2 infected cells) containing ˜4 ng recombinant DMP1 are mixed with 3 ng of ^32P-labeled probe (1×10^5 cpm) in 15 ul Binding buffer containing 2.5 μg of poly(dI-dC) and 2.5 μg BSA and incubated at 4° C. for 30 minutes. For competition experiments, the indicated amounts of unlabeled oligonucleotides are added to the reactions before addition of the labeled probe. In some experiments, a bacterially produced GST-Ets2 fusion protein containing the complete Ets2 DNA-binding domain (10) is used in place of Sf9 extracts containing recombinant DMP1. Protein-DNA complexes are separated on nondenaturing 4% polyacrylamide gels as described (8). Where indicated, antiserum to DMP1 together with 2.5 μg salmon testis DNA (Sigma; used to reduce nonspecific DNA binding activity caused by serum addition) is preincubated with extracts for 30 minutes at 4° C. prior to initiation of binding reactions. Immune complexes are either removed by adsorption to protein A-Sepharose beads (immunodepletion experiments) or are allowed to remain (“supershift” experiments).
A series of deletion mutants and a point mutant of DMP1, K319E, (in which the lysine at position 319 of SEQ ID NO:1 is replaced by a glutamic acid) were prepared and used to determine the DNA-binding domain of DMP1 by electrophoretic mobility shift assay (EMSA) using a ^32P labeled BS2 probe. The DNA-binding domain of DMP1 was mapped to a central region containing the three MYB repeats plus adjacent flanking sequences: a BstEII to NcoI fragment encoding amino acids 87-458 of SEQ ID NO:1 (Table 1). This region alone was necessary and sufficient for DNA binding.

[1] = tested on: DMP1-responsive promoter (pGL2BS2); test: Transactivation of luciferase reporter plasmid under control of a DMP1-responsive promoter in NIH-3T3 fibroblasts; assay type: cell-based, mouse; conditions: expression vector 3 μg/10 ml, pGL2BS2 8 μg/10 ml; vector without insert set to 1.0
Excerpt: Coexpression of a D-type cyclin with DMP1 overrides the ability of DMP1 to transactivate a luciferase gene under the control of an artificial DMP1-responsive promoter (Table 4), as well as the ability of DMP1 to inhibit cell growth.

[2] = tested on: 281 bp ARF promoter fragment; test: Transactivation of ARF promoter-luciferase reporter in NIH-3T3 cells; assay type: cell-based, mouse; conditions: NIH-3T3, 281 bp ARF promoter fragment-luciferase
Description: Transactivation assays. NIH-3T3 cells were transfected with 4 μg of pGL2-ARFpro BamHI or its DMP1 binding site mutant, with or without increasing amount of pFLEX-DMP1, pEVRFO-Ets1, pCMV-Ets2, pRcRSV-Elfl, pdEB-Fli1, p(IEB-EWS-Fli1 or pCMV-E2F-1 (89-437), and 4 μg β-actin SEAP control vectors [Inoue and Sherr, Mol. Cell. Biol. 18: 1590-1600 (1998); Inoue et al., J. Biol. Chem. 273:29188-29194 (1998); Davis and Roussel, Gene 171:265-269 (1996); Baily et al., Mol. Cell. Biol. 14:3230-3241 (1994)]. Transfections and normalization of luciferase levels with internal control SEAP levels were performed as described [Inoue and Sherr, Mol. Cell. Biol. 18:1590-1600 (1998)].
Similarly, DMP1 deletion mutants defective in transactivation [Inoue and Sherr, Mol. Cell. […] Mutation of the DMP1 binding site within the ARF promoter [changing CCCGGATGC, (SEQ ID NO:33) to CCCGTCGAC, (SEQ ID NO:42)] also completely abolished transactivation by wild-type DMP1 (FIG. 14C, mutant reporter). Therefore, sequences within the −189 to −181 ARF promoter segment were the only ones responsible for DMP1-mediated transactivation. Although Ets1 could bind to a 23 base pair oligonucleotide containing the DMP1 consensus site (FIG. 14B), several Ets proteins were unable to induce significant reporter gene expression from the more complex 281 base pair ARF promoter (FIG. 14C). […]

NIH-3T3 fibroblasts = test: BrdU incorporation in transfected NIH-3T3 fibroblasts; assay type: cell-based, mouse
Description: BrdU is added to NIH-3T3 cells after the experimental treatment and the cells were incubated for twenty-two hours in DMEM plus 10% fetal calf serum (FCS). The cells were then stained for DMP1 expression and/or BrdU incorporation. The nucleic acids encoding the wildtype DMP1 and the deletion and point mutants had been constructed so as to express the corresponding proteins with Flag-tags. To stain for DMP1 expression, mouse monoclonal anti-Flag antibodies (12 μg/ml) [Kodak] were incubated with the cells in TBS-Ca^+ without FCS for one hour at room temperature. After washing the cells, horse anti-mouse biotinylated antibodies at a 1:500 dilution were added to the cells in TBS plus 5% FCS and incubated for 30 minutes at room temperature. After washing the cells, strefptavidin linked to Texas red [Amersham] was then added at a 1:500 dilution for 30 minutes at room temperature. To stain for BrdU incorporation, 1.5N HCl was added to the cells for ten minutes at room temperature to denature the DNA. After washing the cells, sheep anti-BrdU antibodies [Fitzgerald] at a 1:12 dilution were then added for one hour at room temperature. After washing the cells, rabbit FITC-conjugated anti-sheep antibodies [Vector] at 1:100 dilution was then incubated for 30 minutes at room temperature.
NIH-3T3 cells were placed on cover slides and transfected with the expression vectors (pFLEX-DMP1 or the corresponding vector containing the deletion or point mutants of mouse DMP1 plus or minus cyclin D or E) for fourteen hours. The cells were then washed twice and DMEM plus 10% FCS was added and the cells incubated for eight hours. Half of the cells were starved by washing twice with 0.1% FCS, and then incubated for twenty-four hours in 0.1% FCS in DMEM. The remaining cells were not starved but were incubated for twenty-four hours in DMEM plus 10% FCS without washing. BrdU was added to both groups of cells and the cells were incubated for twenty-two hours in DMEM plus 10% FCS.
The cells were then restimulated to enter the cell cycle synchronously with DMEM plus 10% FCS. At the same time, 5′-Bromo-2′ Deoxyuridine (BrdU) was added to the medium. The cells were fixed 22 hours later in methanol acetone (1:1) and stained for BrdU incorporation and DMP1 expression as described in the Materials and Methods.

recombinant DMP1 [3] = molecular target: T1, recombinant DMP1 (Mus musculus, UniProt Q8CE22); test: EMSA competition with Sf9 lysates producing recombinant DMP1; assay type: binding; conditions: excess unlabeled oligonucleotide
T1 construct: made in house; host or cells: Sf9 insect cells, pAcYM1 baculovirus vector; used as crude lysate (~4 ng DMP1 per reaction)
T1 sequence (Q8CE22 1-761): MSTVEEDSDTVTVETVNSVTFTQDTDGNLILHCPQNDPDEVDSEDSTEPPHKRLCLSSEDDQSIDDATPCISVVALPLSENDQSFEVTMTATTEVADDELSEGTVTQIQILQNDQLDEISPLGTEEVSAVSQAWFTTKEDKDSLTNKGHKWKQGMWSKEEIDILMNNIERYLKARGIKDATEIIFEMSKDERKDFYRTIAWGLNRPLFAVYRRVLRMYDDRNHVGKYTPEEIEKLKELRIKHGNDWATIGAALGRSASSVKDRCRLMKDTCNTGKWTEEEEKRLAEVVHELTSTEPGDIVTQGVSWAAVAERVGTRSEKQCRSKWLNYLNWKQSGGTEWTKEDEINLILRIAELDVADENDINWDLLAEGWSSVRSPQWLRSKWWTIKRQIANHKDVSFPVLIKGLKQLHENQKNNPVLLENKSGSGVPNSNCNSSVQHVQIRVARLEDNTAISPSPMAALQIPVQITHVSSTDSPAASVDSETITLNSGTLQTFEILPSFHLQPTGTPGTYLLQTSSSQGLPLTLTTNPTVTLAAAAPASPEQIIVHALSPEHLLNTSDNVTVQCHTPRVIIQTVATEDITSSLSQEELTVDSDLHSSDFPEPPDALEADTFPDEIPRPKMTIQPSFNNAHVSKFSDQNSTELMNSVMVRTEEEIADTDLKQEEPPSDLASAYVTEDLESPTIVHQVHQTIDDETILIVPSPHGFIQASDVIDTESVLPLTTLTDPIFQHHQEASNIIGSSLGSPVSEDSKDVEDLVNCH
Description: as §1
(§2) Using electrophoretic mobility shift assays (EMSA) performed after mixing a titrated excess (3 ng) of ^32P-end labeled BS1 probe with Sf9 lysates producing DMP1 (˜4 ng recombinant protein per reaction), a BS1-containing protein complex is detected that was competed with an excess of unlabeled BS1 oligonucleotide but not with mutant oligonucleotides M1 and M2 (FIG. 6A). […] More subtle mutations within this region may be tolerated, because high concentrations of M4 competed for BS1 binding to both Ets2 and DMP1 in subsequent studies (FIG. 5B and see below). DMP1 also binds a BS2 probe, and the binding is competed by excess BS2 or BS1 (FIG. 6B). In agreement with the site selection frequencies (FIG. 5A), binding of ^32P-BS1 under equivalent conditions was competed more efficiently by excess unlabeled BS1 than by BS2 (FIG. 6B). […] In agreement, Ets2 binding to BS1 could be competed with excess unlabeled BS1 and M3, but not by BS2 (FIG. 6C). Therefore, although both DMP1 and Ets2 can each bind to BS1 sequences, their exclusive interactions with BS2 and M3, respectively, help to distinguish DMP1 and Ets binding activities (summarized in FIG. 5B).

recombinant DMP1 [4] = molecular target: T1, recombinant DMP1; test: EMSA competition, recombinant DMP1 and 281 base pair ARF promoter fragment; assay type: binding; conditions: 200-fold excess of unlabelled oligonucleotide
Description: Electrophoretic mobility shift assay (EMSA). Recombinant DMP1 protein was prepared in Sf9 cells [Hirai and Sherr, Mol. Cell. Biol. 16:6457-6467 (1996)]. Purified bacterial proteins representing the Ets1 DNA binding domain or full-length Ets1 [Inoue, et al., J. Biol. Chem. 273:29188-29194 (1998)] were used. EMSAs were performed [Inoue and Sherr, Mol. Cell. Biol. 18:1590-1600 (1998)] using either a 281-bp genomic fragment (−225 to +56) or double-stranded oligonucleotides containing the DMP1/Ets site obtained by annealing oligonucleotide 5′-[…]-3′ (sense strand SEQ ID NO:41); DMP1/Ets consensus sequence underlined) with a complementary antisense strand. For competition experiments, a 200-fold excess of unlabelled oligonucleotides was added to reaction mixtures before the probe. To verify the identity of the proteins in shifted complexes, reaction mixtures were incubated with control nonimmune rabbit serum (NRS), serum AF [Hirai and Sherr, Mol. Cell. Biol. 16:6457-6467 (1996)] and M-10 (both to DMP1 carboxylterminal epitopes), S-19 (DMP1 N-terminus), or C-20 (Ets1 C-terminus) before electrophoresis. M-10, S-19, and C-20 were from Santa Cruz Biotechnology.
The nucleotide sequence of the proximal promoter region of the murine ARF gene relative to the transcription initiation site as defined by S1 mapping analysis was determined (FIG. 13). […]

GST-Ets2 fusion protein = molecular target: T2, GST-Ets2 fusion protein (Homo sapiens, UniProt P15036); test: EMSA competition with bacterial GST-Ets2 fusion protein; assay type: binding; conditions: excess unlabeled oligonucleotide
T2 construct: made in house; host or cells: bacteria
T2 sequence (P15036 363-443 limits assumed): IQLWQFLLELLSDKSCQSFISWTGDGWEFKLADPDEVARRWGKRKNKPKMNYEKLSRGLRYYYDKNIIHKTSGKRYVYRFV
Description: as §1, §2

M11: DMP1 point mutant, lysine at position 319 of SEQ ID NO:1 replaced by glutamic acid
affinity for the DNA probe relative to wildtype (32P-BS2 Probe): about 2%
Luciferase Activity [1]: 1.1
ARF promoter reporter gene expression [2]: had no activity
% Cells BrdU Positive (NIH-3T3 fibroblasts; Table 2, expression vector 3 μg/10 ml): 48%
% Cells BrdU Positive in 10% FCS (NIH-3T3 fibroblasts; nonstarved cells, additive None, labeled 22 hours): 54%
% Cells BrdU Positive in 0.1% FCS (NIH-3T3 fibroblasts; starved cells, additive None, labeled 22 hours): 47%

oligonucleotide BS2: probe/competitor BS2, SEQ ID NO:11, DMP1 binding site CCCGTATGT with GTA core (DNA AATTGACCCGTATGTAGGTACGC; chemistry not given here)
competition for 32P-BS1 probe binding to DMP1 (recombinant DMP1 [3]): competed
competition for BS2 probe binding to DMP1 (recombinant DMP1 [3]): competed
competition for DMP1 binding to the 281 base pair ARF promoter fragment (recombinant DMP1 [4]): completely inhibited
competition for BS1 binding to Ets2 (GST-Ets2 fusion protein): not
